Results as given in ChEMBL document CHEMBL4002541 (Medchemcomm, 2014).
The source made the active and inactive calls. No cut-off for these calls is given here.

Columns and labels:
[1] = target: T1, Melatonin receptor type 1B (Homo sapiens, UniProt P49286); test: Binding affinity to MT2 receptor (unknown origin)
T1 sequence (P49286 whole entry): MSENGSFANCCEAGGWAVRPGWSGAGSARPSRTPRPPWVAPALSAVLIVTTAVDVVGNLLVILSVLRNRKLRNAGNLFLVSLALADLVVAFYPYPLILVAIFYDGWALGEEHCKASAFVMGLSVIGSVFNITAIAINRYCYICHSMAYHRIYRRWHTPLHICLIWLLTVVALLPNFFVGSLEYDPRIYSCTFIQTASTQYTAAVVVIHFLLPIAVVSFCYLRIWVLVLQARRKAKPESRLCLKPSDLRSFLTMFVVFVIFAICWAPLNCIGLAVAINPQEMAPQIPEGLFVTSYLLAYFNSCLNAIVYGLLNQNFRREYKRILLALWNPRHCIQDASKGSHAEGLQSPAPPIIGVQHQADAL

[2] = target: T2, Melatonin receptor type 1A (Homo sapiens, UniProt P48039); test: Binding affinity to MT1 receptor (unknown origin)
T2 sequence (P48039 whole entry): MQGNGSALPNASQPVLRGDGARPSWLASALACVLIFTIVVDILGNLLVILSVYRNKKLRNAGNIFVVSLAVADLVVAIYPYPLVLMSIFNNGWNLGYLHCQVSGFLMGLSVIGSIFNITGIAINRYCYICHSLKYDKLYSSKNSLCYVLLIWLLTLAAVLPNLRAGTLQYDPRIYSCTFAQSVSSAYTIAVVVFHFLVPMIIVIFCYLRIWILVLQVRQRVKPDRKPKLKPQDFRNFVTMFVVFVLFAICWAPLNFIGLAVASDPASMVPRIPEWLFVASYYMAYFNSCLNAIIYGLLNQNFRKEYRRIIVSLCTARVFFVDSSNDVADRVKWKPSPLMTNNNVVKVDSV

[3] = target: T1, Melatonin receptor type 1B; test: Displacement of 2-[125I]Iodomelatonin from human MT2 receptor expressed in CHO cell membranes after 120 mins
[4] = target: T1, Melatonin receptor type 1B; test: Agonist activity at human MT2 receptor expressed in CHO cells after 1 hr by [35S]GTPgammaS binding assay; format: functional, cell-based
[5] = target: T2, Melatonin receptor type 1A; test: Displacement of 2-[125I]Iodomelatonin from human MT1 receptor expressed in CHO cell membranes after 120 mins
[6] = target: T3, 5-hydroxytryptamine receptor 2C (Homo sapiens, UniProt P28335); test: Displacement of [3H]mesulergine from human 5HT2C (VSV) receptor expressed in CHO cell membranes after 60 mins by scintillation counting method
T3 sequence (P28335 whole entry): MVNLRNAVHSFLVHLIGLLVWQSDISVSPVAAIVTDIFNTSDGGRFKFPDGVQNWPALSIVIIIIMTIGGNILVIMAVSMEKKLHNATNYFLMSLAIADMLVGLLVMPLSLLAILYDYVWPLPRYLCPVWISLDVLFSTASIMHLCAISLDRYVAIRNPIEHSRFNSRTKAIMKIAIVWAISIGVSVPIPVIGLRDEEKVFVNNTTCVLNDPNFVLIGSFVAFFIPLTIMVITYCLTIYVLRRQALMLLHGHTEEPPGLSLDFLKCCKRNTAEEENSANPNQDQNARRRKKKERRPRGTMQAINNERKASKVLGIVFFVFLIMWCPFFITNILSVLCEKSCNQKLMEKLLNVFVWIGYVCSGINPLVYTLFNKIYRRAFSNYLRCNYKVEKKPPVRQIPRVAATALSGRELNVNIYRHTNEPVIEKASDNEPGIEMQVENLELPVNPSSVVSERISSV

[7] = target: T2, Melatonin receptor type 1A; test: Agonist activity at human MT1 receptor expressed in CHO cells after 1 hr by [35S]GTPgammaS binding assay; format: functional, cell-based
[8] = test system: Mus musculus; test: Antidepressant activity in OF1 mouse assessed as reduction in immobility time at 64 mg/kg administered 40 mins prior to testing measured for 6 mins by tail suspension test; format: functional, organism-based
[9] = target: T4, 5-hydroxytryptamine receptor 2C (Homo sapiens) (UniProt P28335); test: Antagonist activity at human 5HT2C (VSV) receptor expressed in CHO cells assessed as inhibition of 5-HT-induced [3H]inositol phosphate production preincubated for 20 mins followed by 5-HT addition; format: functional, cell-based
T4 sequence (whole entry): T3 sequence (P28335 whole entry)

[10] = target: T5, Melatonin receptor type 1B (Homo sapiens) (UniProt P49286); test: (§1) Partial agonist activity at human MT2 receptor expressed in CHO cells after 1 hr by [35S]GTPgammaS binding assay; format: functional, cell-based
T5 sequence (whole entry): T1 sequence (P49286 whole entry)

[11] = target: T1, Melatonin receptor type 1B; test: as §1; format: functional, cell-based
[12] = test system: Mus musculus; test: Antidepressant activity in OF1 mouse assessed as reduction in immobility time at 0.1 to 10 mg/kg administered 40 mins prior to testing measured for 6 mins by tail suspension test; format: functional, organism-based
[13] = target: T4, 5-hydroxytryptamine receptor 2C (Homo sapiens); test: Antagonist activity at human 5HT2C (VSV) receptor expressed in CHO cells assessed as inhibition of 5-HT-induced [3H]inositol phosphate production preincubated for 20 mins followed by 5-HT addition relative to 5-HT; format: functional, cell-based
[14] = target: T2, Melatonin receptor type 1A; test: Partial agonist activity at human MT1 receptor expressed in CHO cells after 1 hr by [35S]GTPgammaS binding assay; format: functional, cell-based
[15] = test system: Mus musculus; test: Antidepressant activity in OF1 mouse assessed as reduction in immobility time at 1 to 10 mg/kg administered 40 mins prior to testing measured for 6 mins by tail suspension test; format: functional, organism-based
[16] = test system: Mus musculus; test: Antidepressant activity in OF1 mouse assessed as reduction in immobility time at 0.1 mg/kg administered 40 mins prior to testing measured for 6 mins by tail suspension test; format: functional, organism-based
[17] = organism: Homo sapiens; test: Selectivity ratio of Ki for human MT1 receptor to Ki for human MT2 receptor

| Structure (SMILES) | Ki [3] | EC50 [4] | Ki [5] | Ki [6] | EC50 [7] | further results |
| --- | --- | --- | --- | --- | --- | --- |
| COc1cc2c([C@@H](C)CNC(C)=O)c[nH]c2cc1Cl |  |  |  |  |  | Ki [1]: 0.0398 nM; Ki [2]: 0.0794 nM |
| COc1ccc2cccc(C(CO)CNC(C)=O)c2c1 (stereo not drawn) | 13.8 nM | 145 nM | 11 nM | 229 nM | 72.4 nM |  |
| CN(C)CCCN1c2ccccc2CCc2ccccc21 |  |  |  |  |  | Activity [8]: Active |
| COc1ccc2cccc(C(CO)CNC(=O)CF)c2c1 (racemic) | 0.537 nM | 0.631 nM |  | 166 nM | 25.1 nM |  |
| COc1ccc2cccc(C(CO)CNC(=O)C(F)F)c2c1 (stereo not drawn) | 0.347 nM | 0.372 nM | 1.91 nM | 692 nM | 10.2 nM |  |
| COc1ccc2cccc([C@@H](CO)CNC(=O)CF)c2c1 | 0.977 nM |  | 5.89 nM | 186 nM |  | pKb [9]: 6.3; Emax [10]: 99%; EC50 [11]: 0.794 nM; Activity [12]: Active; Imax [13]: 97%; EC50 [14]: 79.4 nM; Emax [14]: 62% |
| CCC(=O)NC[C@H](CO)c1cccc2ccc(OC)cc12 | 0.316 nM |  | 3.39 nM | 417 nM |  | Activity [15]: Dose-dependent effect; pKb [9]: 6; Emax [10]: 107%; EC50 [11]: 1.26 nM; Imax [13]: 79%; Activity [16]: inactive; EC50 [14]: 19.5 nM; Emax [14]: 59% |
| COc1ccc2cccc([C@H](CO)CNC(=O)CF)c2c1 | 52.5 nM | 25.1 nM | 347 nM | > 10000 nM | 1050 nM | Activity [12]: inactive; Ratio Ki [17]: 7 |
| COc1ccc2cccc(CCNC(C)=O)c2c1 |  |  |  |  |  | Imax [13]: 98% |
| CCC(=O)NCC(CO)c1cccc2ccc(OC)cc12 (racemic) | 2.95 nM | 2.75 nM | 1.35 nM | 708 nM | 49 nM |  |
| CCC(=O)NC[C@@H](CO)c1cccc2ccc(OC)cc12 | 5.5 nM | 7.41 nM | 182 nM | > 10000 nM | 389 nM | Activity [12]: inactive; Ratio Ki [17]: 53 |
